From PMC7181660, “A novel specific PERK activator reduces toxicity and extends survival in Huntington's disease models” (Scientific Reports, 2020)
Like-named read-outs stand apart in the source and are kept apart here.

What was measured:
Experiment in all cases: biochemical
Assay type in all cases: biochemical
panel of 391 kinases [1] = biological target: panel of 391 kinases (Homo sapiens, UniProt Q8IVH8); settings: GLK/MAP4K3, MK-28 1 µM, ATP 1 µM
panel of 391 kinases [2] = biological target: panel of 391 kinases (Homo sapiens, UniProt P42345); settings: kinase mTOR/FRAP1, compound at 1 µM, single dose in duplicates, 1 µM ATP
panel of 391 kinases [3] = biological target: panel of 391 kinases (Homo sapiens, UniProt P15735); settings: PHKg2, MK-28 1 µM, ATP 1 µM
panel of 391 kinases [4] = biological target: panel of 391 kinases (Homo sapiens, UniProt Q8IWQ3); settings: BRSK2, MK-28 1 µM, ATP 1 µM
panel of 391 kinases [5] = biological target: panel of 391 kinases (Homo sapiens, UniProt Q13131); settings: compound at 1 µM, single dose in duplicates, 1 µM ATP; for remaining activity at 1 µM: read-out: % Enzyme Activity (relative to DMSO controls)
panel of 391 kinases [6] = biological target: panel of 391 kinases (Homo sapiens, UniProt Q86UE8); settings: TLK2, MK-28 1 µM, ATP 1 µM
panel of 391 kinases [7] = biological target: panel of 391 kinases (Homo sapiens, UniProt Q04912); settings: RON/MST1R, MK-28 1 µM, ATP 1 µM
panel of 391 kinases [8] = biological target: panel of 391 kinases (Homo sapiens, UniProt Q9BZL6); settings: PKD2/PRKD2, MK-28 1 µM, ATP 1 µM
panel of 391 kinases [9] = biological target: panel of 391 kinases (Homo sapiens, UniProt Q16566); settings: CAMK4, MK-28 1 µM, ATP 1 µM
panel of 391 kinases [10] = biological target: panel of 391 kinases (Homo sapiens, UniProt P22455); settings: FGFR4, MK-28 1 µM, ATP 1 µM
panel of 391 kinases [11] = biological target: panel of 391 kinases (Homo sapiens, UniProt Q9Y2U5); settings: MEKK2, MK-28 1 µM, ATP 1 µM
panel of 391 kinases [12] = biological target: panel of 391 kinases (Homo sapiens, UniProt P15056); settings: BRAF, MK-28 1 µM, ATP 1 µM
panel of 391 kinases [13] = biological target: panel of 391 kinases (Homo sapiens, UniProt O14965); settings: Aurora A, MK-28 1 µM, ATP 1 µM
panel of 391 kinases [14] = biological target: panel of 391 kinases (Homo sapiens, UniProt Q8N752); settings: CK1a1L, MK-28 1 µM, ATP 1 µM
panel of 391 kinases [15] = biological target: panel of 391 kinases (Homo sapiens, UniProt Q12851); settings: GCK/MAP4K2, MK-28 1 µM, ATP 1 µM
panel of 391 kinases [16] = biological target: panel of 391 kinases (Homo sapiens, UniProt Q8N568); settings: DCAMKL2, MK-28 1 µM, ATP 1 µM
panel of 391 kinases [17] = biological target: panel of 391 kinases (Homo sapiens, UniProt Q15303); settings: ERBB4/HER4, MK-28 1 µM, ATP 1 µM
panel of 391 kinases [18] = biological target: panel of 391 kinases (Homo sapiens, UniProt Q9UIK4); settings: DAPK2, MK-28 1 µM, ATP 1 µM
panel of 391 kinases [19] = biological target: panel of 391 kinases (Homo sapiens, UniProt Q13627); settings: DYRK1/DYRK1A, MK-28 1 µM, ATP 1 µM
panel of 391 kinases [20] = biological target: panel of 391 kinases (Homo sapiens, UniProt Q9P0L2); settings: MARK1, MK-28 1 µM, ATP 1 µM
panel of 391 kinases [21] = biological target: panel of 391 kinases (Homo sapiens, UniProt O95819); settings: HGK/MAP4K4, MK-28 1 µM, ATP 1 µM
panel of 391 kinases [22] = biological target: panel of 391 kinases (Homo sapiens, UniProt P35968); settings: KDR/VEGFR2, MK-28 1 µM, ATP 1 µM
panel of 391 kinases [23] = biological target: panel of 391 kinases (Homo sapiens, UniProt Q9UQB9); settings: Aurora C, MK-28 1 µM, ATP 1 µM
panel of 391 kinases [24] = biological target: panel of 391 kinases (Homo sapiens, UniProt O14733); settings: MKK7, MK-28 1 µM, ATP 1 µM
[25] = read-out: % Enzyme Activity (relative to DMSO controls)

With `CN(/N=C\c1ccc(O)c(O)c1)c1nc(-c2ccccc2)cc(-c2ccccc2)n1` [MK-28] the “% Enzyme Activity (relative to DMSO controls)” value (panel of 391 kinases [1]) was 94.50%, the remaining activity at 1 µM (panel of 391 kinases [1]; [25]) was 95.9% and the “% Enzyme Activity (relative to DMSO controls)” value (panel of 391 kinases [2]) was 93.79%. The remaining activity at 1 µM (panel of 391 kinases [2]; [25]) was 94.4%, the “% Enzyme Activity (relative to DMSO controls)” value (panel of 391 kinases [3]) was 95.93% and the remaining activity at 1 µM (panel of 391 kinases [3]; [25]) was 96.2%. For the same compound, the “% Enzyme Activity (relative to DMSO controls)” value (panel of 391 kinases [4]) was 99.36%, the remaining activity at 1 µM (panel of 391 kinases [4]; [25]) was 101% and the “% Enzyme Activity (relative to DMSO controls)” value (panel of 391 kinases [5]; kinase AMPK(A1/B1/G1)) was 95.82%. For the same compound, the remaining activity at 1 µM (panel of 391 kinases [5]; kinase AMPK(A1/B1/G1)) was 96.3%, the “% Enzyme Activity (relative to DMSO controls)” value (panel of 391 kinases [5]; kinase AMPK(A1/B1/G2)) was 98.77% and the remaining activity at 1 µM (panel of 391 kinases [5]; kinase AMPK(A1/B1/G2)) was 101%. The “% Enzyme Activity (relative to DMSO controls)” value (panel of 391 kinases [5]; kinase AMPK(A1/B1/G3)) was 86.51%, the remaining activity at 1 µM (panel of 391 kinases [5]; kinase AMPK(A1/B1/G3)) was 87% and the “% Enzyme Activity (relative to DMSO controls)” value (panel of 391 kinases [5]; kinase AMPK(A1/B2/G1)) was 106.30%. The remaining activity at 1 µM (panel of 391 kinases [5]; kinase AMPK(A1/B2/G1)) was 108%, the “% Enzyme Activity (relative to DMSO controls)” value (panel of 391 kinases [6]) was 101.04% and the remaining activity at 1 µM (panel of 391 kinases [6]; [25]) was 102%. For the same compound, the “% Enzyme Activity (relative to DMSO controls)” value (panel of 391 kinases [7]) was 102.49%, the remaining activity at 1 µM (panel of 391 kinases [7]; [25]) was 104% and the “% Enzyme Activity (relative to DMSO controls)” value (panel of 391 kinases [8]) was 86.38%. For the same compound, the remaining activity at 1 µM (panel of 391 kinases [8]; [25]) was 87%, the “% Enzyme Activity (relative to DMSO controls)” value (panel of 391 kinases [9]) was 99.67% and the remaining activity at 1 µM (panel of 391 kinases [9]; [25]) was 101%. The “% Enzyme Activity (relative to DMSO controls)” value (panel of 391 kinases [10]) was 100.59%, the remaining activity at 1 µM (panel of 391 kinases [10]; [25]) was 105% and the “% Enzyme Activity (relative to DMSO controls)” value (panel of 391 kinases [11]) was 91.93%. For the same compound, the remaining activity at 1 µM (panel of 391 kinases [11]; [25]) was 94%, the “% Enzyme Activity (relative to DMSO controls)” value (panel of 391 kinases [12]) was 99.64% and the remaining activity at 1 µM (panel of 391 kinases [12]; [25]) was 101%. For the same compound, the “% Enzyme Activity (relative to DMSO controls)” value (panel of 391 kinases [13]) was 71.13%, the remaining activity at 1 µM (panel of 391 kinases [13]; [25]) was 73.2% and the “% Enzyme Activity (relative to DMSO controls)” value (panel of 391 kinases [14]) was 99.36%. For the same compound, the remaining activity at 1 µM (panel of 391 kinases [14]; [25]) was 100%, the “% Enzyme Activity (relative to DMSO controls)” value (panel of 391 kinases [15]) was 97.18% and the remaining activity at 1 µM (panel of 391 kinases [15]; [25]) was 97.2%. The “% Enzyme Activity (relative to DMSO controls)” value (panel of 391 kinases [16]) was 121.14%, the remaining activity at 1 µM (panel of 391 kinases [16]; [25]) was 122% and the “% Enzyme Activity (relative to DMSO controls)” value (panel of 391 kinases [17]) was 97.84%. For the same compound, the remaining activity at 1 µM (panel of 391 kinases [17]; [25]) was 99.3%, the “% Enzyme Activity (relative to DMSO controls)” value (panel of 391 kinases [18]) was 98.71% and the remaining activity at 1 µM (panel of 391 kinases [18]; [25]) was 104%. For the same compound, the “% Enzyme Activity (relative to DMSO controls)” value (panel of 391 kinases [19]) was 102.59%, the remaining activity at 1 µM (panel of 391 kinases [19]; [25]) was 103% and the “% Enzyme Activity (relative to DMSO controls)” value (panel of 391 kinases [20]) was 94.22%. The remaining activity at 1 µM (panel of 391 kinases [20]; [25]) was 94.5%, the “% Enzyme Activity (relative to DMSO controls)” value (panel of 391 kinases [21]) was 95.38% and the remaining activity at 1 µM (panel of 391 kinases [21]; [25]) was 102%. For the same compound, the “% Enzyme Activity (relative to DMSO controls)” value (panel of 391 kinases [22]) was 98.38%, the remaining activity at 1 µM (panel of 391 kinases [22]; [25]) was 99.8% and the “% Enzyme Activity (relative to DMSO controls)” value (panel of 391 kinases [23]) was 93.97%. For the same compound, the remaining activity at 1 µM (panel of 391 kinases [23]; [25]) was 95.6%, the “% Enzyme Activity (relative to DMSO controls)” value (panel of 391 kinases [24]) was 95.27% and the remaining activity at 1 µM (panel of 391 kinases [24]; [25]) was 96.9%.
